Drawing on ChEMBL document CHEMBL5465560, “Selectivity Literature for EUbOPEN Chemogenomic Library” (2024), this text covers % of control and % binding for 6 compounds.

Assay [1] concerns the target Phosphatidylinositol 4,5-bisphosphate 3-kinase catalytic subunit alpha isoform (Homo sapiens) (UniProt P42336). Particulars: at 10 µM.
Assay [2] concerns the target T1, Tyrosine-protein kinase JAK3 (Homo sapiens) (UniProt P52333).
T1 sequence (whole entry): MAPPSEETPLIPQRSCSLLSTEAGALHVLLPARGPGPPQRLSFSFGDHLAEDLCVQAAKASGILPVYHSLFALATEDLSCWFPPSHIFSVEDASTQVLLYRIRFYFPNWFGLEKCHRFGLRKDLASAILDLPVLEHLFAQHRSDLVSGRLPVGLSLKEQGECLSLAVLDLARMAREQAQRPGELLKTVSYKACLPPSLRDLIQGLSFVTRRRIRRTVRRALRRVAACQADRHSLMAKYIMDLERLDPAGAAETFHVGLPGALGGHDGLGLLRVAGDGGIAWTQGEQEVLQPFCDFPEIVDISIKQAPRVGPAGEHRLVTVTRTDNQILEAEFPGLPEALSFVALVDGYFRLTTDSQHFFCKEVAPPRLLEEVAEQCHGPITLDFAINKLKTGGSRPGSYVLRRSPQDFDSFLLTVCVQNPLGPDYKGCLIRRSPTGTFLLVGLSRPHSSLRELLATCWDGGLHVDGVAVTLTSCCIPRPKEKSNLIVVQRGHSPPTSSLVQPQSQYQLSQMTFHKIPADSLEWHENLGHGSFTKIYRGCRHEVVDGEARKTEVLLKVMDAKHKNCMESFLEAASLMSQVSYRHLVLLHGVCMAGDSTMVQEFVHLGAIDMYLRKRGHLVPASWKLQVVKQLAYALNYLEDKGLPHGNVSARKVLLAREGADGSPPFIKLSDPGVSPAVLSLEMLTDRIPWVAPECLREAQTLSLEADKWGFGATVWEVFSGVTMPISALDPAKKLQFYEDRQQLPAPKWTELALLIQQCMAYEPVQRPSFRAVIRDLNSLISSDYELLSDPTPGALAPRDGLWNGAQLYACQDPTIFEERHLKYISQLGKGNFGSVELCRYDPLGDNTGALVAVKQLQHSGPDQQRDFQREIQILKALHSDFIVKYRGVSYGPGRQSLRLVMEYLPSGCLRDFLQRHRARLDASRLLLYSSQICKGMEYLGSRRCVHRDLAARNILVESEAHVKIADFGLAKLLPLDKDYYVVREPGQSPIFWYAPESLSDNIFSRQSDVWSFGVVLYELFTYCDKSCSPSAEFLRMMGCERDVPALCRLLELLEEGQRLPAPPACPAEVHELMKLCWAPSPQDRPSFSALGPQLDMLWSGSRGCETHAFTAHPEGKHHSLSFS
Briefly: Selectivity interaction (KinomeScan (DiscoverX)) EUB0000695a JAK3. Particulars: at 100 nM.

Assay [3] addresses T2, Mitogen-activated protein kinase kinase kinase 2 (Homo sapiens) (UniProt Q9Y2U5).
T2 sequence (whole entry): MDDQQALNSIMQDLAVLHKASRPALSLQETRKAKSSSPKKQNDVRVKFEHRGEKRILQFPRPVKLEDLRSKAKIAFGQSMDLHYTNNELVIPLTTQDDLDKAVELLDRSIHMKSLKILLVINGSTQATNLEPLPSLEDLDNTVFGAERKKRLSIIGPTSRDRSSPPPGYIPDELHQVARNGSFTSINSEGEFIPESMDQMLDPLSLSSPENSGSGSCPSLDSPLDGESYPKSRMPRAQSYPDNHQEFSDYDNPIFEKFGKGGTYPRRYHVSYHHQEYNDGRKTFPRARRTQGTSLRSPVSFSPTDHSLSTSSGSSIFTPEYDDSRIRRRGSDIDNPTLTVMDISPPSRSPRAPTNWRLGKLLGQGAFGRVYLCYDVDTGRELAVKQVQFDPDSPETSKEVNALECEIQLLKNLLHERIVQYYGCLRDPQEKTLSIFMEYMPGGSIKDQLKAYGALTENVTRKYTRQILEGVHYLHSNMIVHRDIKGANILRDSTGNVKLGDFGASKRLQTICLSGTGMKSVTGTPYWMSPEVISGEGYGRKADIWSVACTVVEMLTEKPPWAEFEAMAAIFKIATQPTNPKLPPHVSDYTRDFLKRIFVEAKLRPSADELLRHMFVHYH
Briefly: Selectivity interaction (KinomeScan (DiscoverX)) EUB0000045b MAP3K2.

The target of assay [4] is SRSF protein kinase 3 (Homo sapiens) (UniProt Q9UPE1). Briefly: Selectivity interaction (KinomeScan (DiscoverX)) EUB0000655a SRPK3. To be noted: at 10 µM.
Sequence of SRSF protein kinase 3 (Homo sapiens) (Q9UPE1 whole entry): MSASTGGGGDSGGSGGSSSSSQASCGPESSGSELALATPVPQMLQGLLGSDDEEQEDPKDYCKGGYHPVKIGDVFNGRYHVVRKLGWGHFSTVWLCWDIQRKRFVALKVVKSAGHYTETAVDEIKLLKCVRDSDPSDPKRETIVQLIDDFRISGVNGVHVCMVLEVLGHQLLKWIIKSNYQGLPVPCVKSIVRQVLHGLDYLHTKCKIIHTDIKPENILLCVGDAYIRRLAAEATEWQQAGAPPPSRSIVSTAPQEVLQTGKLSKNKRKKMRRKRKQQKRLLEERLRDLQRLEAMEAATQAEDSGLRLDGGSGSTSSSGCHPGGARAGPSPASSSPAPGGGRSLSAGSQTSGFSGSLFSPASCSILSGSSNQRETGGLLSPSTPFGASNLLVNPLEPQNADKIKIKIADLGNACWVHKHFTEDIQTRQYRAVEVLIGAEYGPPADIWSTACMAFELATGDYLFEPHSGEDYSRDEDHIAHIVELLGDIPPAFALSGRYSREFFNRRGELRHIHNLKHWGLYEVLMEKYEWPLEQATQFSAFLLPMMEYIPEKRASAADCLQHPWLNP
In assay [5] the target is T3, Serine/threonine-protein kinase Sgk1 (Homo sapiens) (UniProt O00141).
T3 sequence (whole entry): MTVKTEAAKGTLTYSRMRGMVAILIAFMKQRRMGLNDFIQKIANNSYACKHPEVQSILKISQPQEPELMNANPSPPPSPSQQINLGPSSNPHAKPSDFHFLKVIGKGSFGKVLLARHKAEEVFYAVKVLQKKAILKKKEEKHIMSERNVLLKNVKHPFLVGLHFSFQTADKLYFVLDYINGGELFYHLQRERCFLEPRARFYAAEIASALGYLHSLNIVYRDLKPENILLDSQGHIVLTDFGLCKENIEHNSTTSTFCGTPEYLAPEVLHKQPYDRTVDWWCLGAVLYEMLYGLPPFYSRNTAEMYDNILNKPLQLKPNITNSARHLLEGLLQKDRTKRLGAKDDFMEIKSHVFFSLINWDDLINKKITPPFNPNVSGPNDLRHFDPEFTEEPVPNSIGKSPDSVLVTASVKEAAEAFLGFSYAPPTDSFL
The assay can be described thus: Selectivity interaction (KinomeScan (DiscoverX)) EUB0001079a SGK1. To be noted: at 1 µM.

The target in assay [6] is Cyclin-dependent kinase-like 1 (Homo sapiens) (UniProt Q00532). The assay can be described thus: Selectivity interaction (KinomeScan (DiscoverX)) EUB0000229b CDKL1. Particulars: at 10 µM.
Sequence of Cyclin-dependent kinase-like 1 (Homo sapiens) (Q00532 whole entry): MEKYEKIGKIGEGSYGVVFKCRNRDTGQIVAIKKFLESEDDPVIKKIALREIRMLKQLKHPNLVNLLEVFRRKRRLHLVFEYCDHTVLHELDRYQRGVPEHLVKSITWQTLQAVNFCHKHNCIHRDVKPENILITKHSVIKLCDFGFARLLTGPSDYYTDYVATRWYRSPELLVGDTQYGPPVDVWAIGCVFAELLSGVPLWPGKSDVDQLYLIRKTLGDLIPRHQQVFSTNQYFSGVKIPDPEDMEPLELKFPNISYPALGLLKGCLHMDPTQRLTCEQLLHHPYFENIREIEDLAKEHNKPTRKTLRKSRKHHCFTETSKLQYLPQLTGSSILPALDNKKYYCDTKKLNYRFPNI
In assay [7] the target is Serine/threonine-protein kinase Chk2 (Homo sapiens) (UniProt O96017). Briefly: Selectivity interaction (KinomeScan (DiscoverX)) EUB0000229b CHEK2. Particulars: at 10 µM.
Sequence of Serine/threonine-protein kinase Chk2 (Homo sapiens) (O96017 whole entry): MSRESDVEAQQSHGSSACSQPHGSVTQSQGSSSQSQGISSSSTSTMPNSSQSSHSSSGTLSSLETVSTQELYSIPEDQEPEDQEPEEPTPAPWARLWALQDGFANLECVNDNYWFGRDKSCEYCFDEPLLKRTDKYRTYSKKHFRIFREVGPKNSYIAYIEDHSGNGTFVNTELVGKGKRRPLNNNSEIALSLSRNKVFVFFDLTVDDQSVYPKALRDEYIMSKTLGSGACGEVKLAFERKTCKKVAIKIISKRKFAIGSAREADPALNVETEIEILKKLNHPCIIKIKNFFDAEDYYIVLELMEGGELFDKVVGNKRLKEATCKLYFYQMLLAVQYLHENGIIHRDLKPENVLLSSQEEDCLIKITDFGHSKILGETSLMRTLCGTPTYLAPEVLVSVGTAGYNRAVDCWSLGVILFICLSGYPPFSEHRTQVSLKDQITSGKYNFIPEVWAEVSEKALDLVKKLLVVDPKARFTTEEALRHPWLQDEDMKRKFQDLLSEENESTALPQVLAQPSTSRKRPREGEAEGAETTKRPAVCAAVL

Sequence of Phosphatidylinositol 4,5-bisphosphate 3-kinase catalytic subunit alpha isoform (Homo sapiens) (P42336 whole entry, canonical isoform): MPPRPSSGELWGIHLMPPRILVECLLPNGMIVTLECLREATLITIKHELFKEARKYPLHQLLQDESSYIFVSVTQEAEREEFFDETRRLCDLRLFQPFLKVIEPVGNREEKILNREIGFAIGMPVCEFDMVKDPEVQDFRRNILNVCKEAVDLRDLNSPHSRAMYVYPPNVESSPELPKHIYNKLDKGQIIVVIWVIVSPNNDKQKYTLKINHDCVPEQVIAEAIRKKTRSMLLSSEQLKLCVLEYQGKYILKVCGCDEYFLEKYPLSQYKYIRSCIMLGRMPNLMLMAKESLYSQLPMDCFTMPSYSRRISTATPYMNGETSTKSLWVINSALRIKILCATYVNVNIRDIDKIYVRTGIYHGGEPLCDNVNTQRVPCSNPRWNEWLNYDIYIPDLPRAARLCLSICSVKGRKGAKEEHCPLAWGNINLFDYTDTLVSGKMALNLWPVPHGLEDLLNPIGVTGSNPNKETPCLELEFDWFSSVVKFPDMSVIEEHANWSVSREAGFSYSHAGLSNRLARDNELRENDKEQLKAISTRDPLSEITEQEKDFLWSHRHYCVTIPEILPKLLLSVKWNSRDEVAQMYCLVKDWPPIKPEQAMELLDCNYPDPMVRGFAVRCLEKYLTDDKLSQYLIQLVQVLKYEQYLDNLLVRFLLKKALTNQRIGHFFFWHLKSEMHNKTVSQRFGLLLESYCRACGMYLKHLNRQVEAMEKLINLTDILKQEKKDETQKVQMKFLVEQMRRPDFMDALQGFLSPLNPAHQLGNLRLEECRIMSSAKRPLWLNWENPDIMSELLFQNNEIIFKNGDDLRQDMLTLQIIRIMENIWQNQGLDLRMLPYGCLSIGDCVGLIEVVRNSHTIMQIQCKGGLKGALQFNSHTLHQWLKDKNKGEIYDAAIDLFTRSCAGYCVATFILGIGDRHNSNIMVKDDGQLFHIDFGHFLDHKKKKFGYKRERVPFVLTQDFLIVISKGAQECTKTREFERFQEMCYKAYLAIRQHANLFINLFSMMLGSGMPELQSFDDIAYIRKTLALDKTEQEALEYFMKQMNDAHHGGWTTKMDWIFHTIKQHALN

Turning to `COCC(=O)NC/C=C/c1ccc2ncnc(Nc3ccc(Oc4ccc(C)nc4)c(C)c3)c2c1` [CP-724714], in assay [1], the % of control came to 100%.

On to `Cc1cc(F)c(C(=O)Nc2cccc(-c3nncn3C(C)C)n2)cc1-n1cnc(C2CC2)c1`, for which the % of control in assay [2] was 100%.

As to `C=CC(=O)Nc1cc(-n2c(=O)ccc3cnc4ccc(-c5ccc(NS(C)(=O)=O)cc5)cc4c32)ccc1C`, the % of control in assay [3] (at 1 µM) and in assay [3] (at 10 µM) was 100% throughout.

In assay [4], `CN(C)CCOc1ccc(-c2nc(-c3ccncc3)c(-c3ccc4c(c3)CC/C4=N\O)[nH]2)cc1` displayed a % of control of 100%.

Regarding `Nc1cnc(N2CCc3cc(S(=O)(=O)Nc4c(F)cc(Cl)cc4F)cc(N4CCCC4=O)c32)nc1` [TP-020n], in assay [5], the % of control stood at 100%.

As to `COc1cc(N(C)c2ccnc3ccc(C(F)(F)F)cc23)cc(OC)c1OC`, the figures for the % binding in assay [6] and in assay [7] were 70% and 74%, respectively.
